Assay results taken from patent publication US6518423B1, “Benzopiperidine derivatives” (Eisai Co., Ltd., priority 1996, dated 2003).

Structure (SMILES) | melting point
CCCN1c2ccccc2Nc2nccnc21 | 190 to 192 °C
CC(C(=O)O)C1CC2(CCN(Cc3ccc4c(c3)Nc3nccnc3S4)CC2)C1 (stereo not drawn) | 169 to 172 °C
c1cn(CCCc2ccc3c(c2)Nc2nccnc2S3)cn1 | 139 to 141 °C
OCC(O)CN1c2ccccc2Nc2nccnc21 (stereo not drawn) | 191 to 194 °C
CC(CCC1CCN(CC(O)c2ccc3c(c2)Nc2nccnc2S3)CC1)C(=O)O (stereo not drawn) | 239 to 242 °C
O=C(O)COc1ccc(NCc2ccc3c(c2)Nc2nccnc2S3)cn1 | 170 °C
O=C(O)CS(=O)(=O)NC1CCN(Cc2ccc3c(c2)Nc2nccnc2S3)CC1 | 200 to 210 °C
CN/C(=C\[N+](=O)[O-])NCc1ccc2c(c1)Nc1nccnc1S2 | > 265 °C (dec.)
OC/C=C/CN1c2ccccc2Nc2nccnc21 | 197 to 199 °C
O=C(NCc1ccc2c(c1)Nc1nccnc1S2)c1ccncc1 | 249 to 253 °C (dec.)
O=S(=O)(NC1CCN(Cc2ccc3c(c2)Nc2nccnc2S3)CC1)c1ccccc1 | 157 to 158 °C
COC(=O)CCCN1c2ccccc2Nc2nccnc21 | 189 to 190 °C
N/C(Cc1ccc2c(c1)Nc1nccnc1S2)=N\S(=O)(=O)c1ccccc1 | 206 to 207 °C
CS(=O)(=O)NC1CCN(Cc2ccc3c(c2)Nc2nccnc2O3)CC1 | 241 to 243 °C
CC1CCCC(C)N1Cc1ccc2c(c1)Nc1nccnc1S2 (stereo not drawn) | 168 to 172 °C
c1cnc2c(c1)ccn2Cc1ccc2c(c1)Nc1nccnc1S2 | 202 to 204 °C
O=C1CCN(Cc2ccc3c(c2)Nc2nccnc2S3)CC1 | 186 to 188 °C
CN1c2ccc(C(O)C#Cc3ccccc3)cc2Nc2nccnc21 (stereo not drawn) | 204 to 208 °C
CC(C)(CCCN1CCN(Cc2ccc3c(c2)Nc2nccnc2S3)CC1)C(=O)O [750] | 240 to 242 °C
CN(C)c1ccc(NCc2ccc3c(c2)Nc2nccnc2S3)cn1 | 244 to 247 °C
c1ccc(Cc2ccc(NCc3ccc4c(c3)Nc3nccnc3S4)cn2)cc1 | 162 to 164 °C
CN(C)S(=O)(=O)NC1CN=C(Cc2ccc3c(c2)Nc2nccnc2S3)NC1 (stereo not drawn) | 251 to 254 °C
C/C(=C\C(=O)O)C1CCN(Cc2ccc3c(c2)Nc2nccnc2S3)CC1 | 207 to 209 °C
Cc1ncn(Cc2ccc3c(c2)Nc2nccnc2S3)c1C(C)(C)O | 199 to 202 °C
O=C1C=CN(Cc2ccc3c(c2)Nc2nccnc2S3)CC1 | 233 to 235 °C
NS(=O)(=O)N1CCN(Cc2ccc3c(c2)Nc2nccnc2S3)CC1 | 215 to 217 °C (dec.)

Structure (SMILES) | melting point
c1cc(CNCc2ccc3c(c2)Nc2nccnc2S3)ccn1 | 174 to 176 °C
CS(=O)(=O)NCC1=CCCN(Cc2ccc3c(c2)Nc2nccnc2S3)C1 | 110 to 112 °C
CN1c2ccc(C#CC(=O)O)cc2Nc2nccnc21 | > 275 °C
O=C(O)C1CCN(CCCc2ccc3c(c2)Nc2nccnc2S3)CC1 | 262 to 264 °C
Cc1c(C(C)(C)O)ncn1Cc1ccc2c(c1)Nc1nccnc1S2 | 264 to 266 °C
CC(=O)N1CCN(C(=N)Cc2ccc3c(c2)Nc2nccnc2S3)CC1.Cl | 268 to 269 °C
CS(=O)(=O)/N=C/N1CCN(Cc2ccc3c(c2)Nc2nccnc2S3)CC1 | 212 to 214 °C
CC(=O)Nc1ccc(-c2cn(Cc3ccc4c(c3)Nc3nccnc3S4)cn2)cc1 | 261 to 263 °C
CN(CCCC(C)(C)C(=O)O)Cc1ccc2c(c1)Nc1nccnc1S2 | 200 to 202 °C
CCCCC(Sc1ncnc2c1ncn2Cc1ccc2c(c1)Nc1nccnc1S2)C(=O)O (stereo not drawn) | 110 to 120 °C (dec.)
OC(CCc1ccccc1)c1ccc2c(c1)Nc1nccnc1S2 (stereo not drawn) | 156 to 158 °C
CN1CCN(c2ncnc3c2ncn3Cc2ccc3c(c2)Nc2nccnc2S3)CC1 | 197 to 202 °C
FC(F)(F)c1cnc(NCc2ccc3c(c2)Nc2nccnc2S3)c(Cl)c1 | 158 to 161 °C
NC(=O)c1ccc(NCc2ccc3c(c2)Nc2nccnc2S3)nc1 | 245 to 250 °C
CC(C)(O)C(=O)CC(SCC(=O)O)C1CCN(Cc2ccc3c(c2)Nc2nccnc2S3)CC1 (stereo not drawn) | 130 to 132 °C
O=S(=O)(NC1CCN(Cc2ccc3c(c2)Nc2nccnc2S3)CC1)C(F)(F)F | 199 to 201 °C
CCOC(=O)CC(=O)c1ccc2c(c1)Nc1nccnc1N2C | 88 to 89 °C
CC(=O)NCC1CCN(Cc2ccc3c(c2)Nc2nccnc2S3)CC1 | 168 to 170 °C
Cc1ccc(NCc2ccc3c(c2)Nc2nccnc2S3)cn1 | 205 to 208 °C
CNS(=O)(=O)N1CCN(Cc2ccc3c(c2)Nc2nccnc2S3)CC1 | 208 to 210 °C
CC(c1cccnc1)c1ccc2c(c1)Nc1nccnc1S2 (stereo not drawn) | 180 to 181 °C
CN1CC2CN(Cc3ccc4c(c3)Nc3nccnc3S4)CC(C1)C2CC(=O)O (stereo not drawn) | 220 °C (dec.)
CC(CCC1CCN(Cc2ccc3c(c2)Nc2ncncc2S3)CC1)C(=O)O (stereo not drawn) | 219 to 220 °C
O=C(O)C#CC1CCN(Cc2ccc3c(c2)Nc2nccnc2S3)CC1 | 155 to 156 °C
COC(c1cccnc1)c1ccc2c(c1)Nc1nccnc1S2 (stereo not drawn) | 156 to 188 °C
O=C(Nc1ccccc1)c1ccc2c(c1)Nc1nccnc1S2 | 281 to 282 °C

Structure (SMILES) | melting point
N#CN=CN(Cc1ccc2c(c1)Nc1nccnc1S2)Cc1ccccn1 | 208 to 210 °C
O=C(O)CC(=O)NC1CCN(Cc2ccc3c(c2)Nc2nccnc2S3)CC1 | 149 to 151 °C
O=C(O)CNC1CCN(Cc2ccc3c(c2)Nc2nccnc2S3)CC1 | 206 to 208 °C
O=C(O)COCCC1C2CCCC1CN(Cc1ccc3c(c1)Nc1nccnc1S3)C2 (stereo not drawn) | 108 to 113 °C
c1cc(NCc2ccc3c(c2)Nc2nccnc2S3)ccn1 | 194 to 196 °C
COc1ccc2c(c1)Nc1nccnc1N2C | 198 to 201 °C
Cc1oncc1C(=O)NCCc1cn(Cc2ccc3c(c2)Nc2nccnc2S3)cn1 | 165 to 167 °C
CN(C)c1c(N2CCN(Cc3ccc4c(c3)Nc3nccnc3S4)CC2)c(=O)c1=O | 296 to 300 °C (dec.)
CCc1ccc(C(O)c2ccc3c(c2)Nc2nccnc2S3)cn1 (stereo not drawn) | 161 to 163 °C
C=CCN1c2ccccc2Nc2nccnc21 | 173 to 175 °C
NS(=O)(=O)c1ccc(CNCc2ccc3c(c2)Nc2nccnc2S3)cc1 | 210 to 212 °C
O=c1[nH]cnc2ncn(Cc3ccc4c(c3)Nc3nccnc3S4)c12 | > 275 °C
c1cc(CCc2ccc3c(c2)Nc2nccnc2S3)ccn1 | 179 to 183 °C
O=C(O)CC1CC2CCC(C1)N2Cc1ccc2c(c1)Nc1nccnc1S2 (stereo not drawn) | 155 to 158 °C
CN1c2ccc(C(=O)c3ccccn3)cc2Nc2nccnc21 | 261 to 262 °C
O=C(O)COC1CCN(Cc2ccc3c(c2)Nc2nccnc2S3)CC1 | 204 to 207 °C
OCCC12CCN(Cc3ccc4c(c3)Nc3nccnc3S4)CC1C2 (stereo not drawn) | 57 to 60 °C
CN(C)CC#Cc1ccc2c(c1)Nc1nccnc1N2C | 188 to 189 °C
O=C(O)C(F)=C1C2CCCC1CN(Cc1ccc3c(c1)Nc1nccnc1S3)C2 | 223 to 225 °C (dec.)
CN1c2cc(O)ccc2Nc2nccnc21 | > 275 °C
O=C(O)C1CCC2(CC1)CCN(Cc1ccc3c(c1)Nc1nccnc1S3)C2 (stereo not drawn) | 146 °C (dec.)
COCN1c2ccccc2Nc2nccnc21 | 185 to 188 °C
O=C(O)C1CCN(S(=O)(=O)NC2CCN(Cc3ccc4c(c3)Nc3nccnc3S4)CC2)CC1 | 54 to 55 °C
N#CC1CCN(Cc2ccc3c(c2)Nc2nccnc2S3)CC1 | 198 to 199 °C
O=Cc1nccn1Cc1ccc2c(c1)Nc1nccnc1S2 | 218 to 219 °C
CC/C(=C\c1c(C)ncn1Cc1ccc2c(c1)Nc1nccnc1S2)C(=O)O | 172 °C

Structure (SMILES) | melting point
CC1CC(C)CN(c2ncnc3c2ncn3Cc2ccc3c(c2)Nc2nccnc2S3)C1 (stereo not drawn) | 237 to 238 °C
c1cnc2c(n1)Nc1cc(CN3CCc4ccoc4C3)ccc1S2 | 168 to 172 °C
CC(C(=O)O)=C1CCN(Cc2ccc3c(c2)Nc2nccnc2S3)CC1 | 125 to 127 °C
O=C(O)c1ccc(CNCc2ccc3c(c2)Nc2nccnc2S3)cc1 | 245 to 248 °C
CC(CCC1C2CCCC1CN(Cc1ccc3c(c1)Nc1nccnc1S3)C2)C(=O)O (stereo not drawn) | 104 to 108 °C
CC1(C(=O)O)C2CCCC1CN(Cc1ccc3c(c1)Nc1nccnc1S3)C2 (stereo not drawn) [Example 116] | 183 to 185 °C
N#Cc1ncnc2c1ncn2Cc1ccc2c(c1)Nc1nccnc1S2 | 272 to 274 °C
O=C(O)C(O)C1CCN(Cc2ccc3c(c2)Nc2nccnc2S3)CC1 (stereo not drawn) | 98 to 99 °C
C(=N\c1ccccn1)/NCc1ccc2c(c1)Nc1nccnc1S2 | 137 to 142 °C
N#Cc1ccc(-c2cn(Cc3ccc4c(c3)Nc3nccnc3S4)cn2)cc1 | 262 to 264 °C
Clc1ccc(NCc2ccc3c(c2)Nc2nccnc2S3)nc1 | 200 to 203 °C
CC(CC(=O)O)C1CCN(Cc2ccc3c(c2)Nc2nccnc2S3)CC1 (stereo not drawn) | 218 to 220 °C
O=c1c2ccccc2[nH]n1Cc1ccc2c(c1)Nc1nccnc1S2 | > 275 °C
CN1c2ccc(C(N)c3ccccn3)cc2Nc2nccnc21 (stereo not drawn) | > 275 °C
c1cc2c(cn1)Sc1ccc(CN3CCCCC3)cc1N2 | 163 to 166 °C
CC(C)(CO)C1C2CCCC1CN(Cc1ccc3c(c1)Nc1nccnc1S3)C2 (stereo not drawn) | 181 to 183 °C
O=C(O)CCNC(=O)Cc1ccc2c(c1)Nc1nccnc1S2 | 220 to 225 °C
CC(C)(CCCCc1ccc(NCc2ccc3c(c2)Nc2nccnc2S3)cn1)C(=O)O | 158 to 161 °C
CN(C)CCCNC(=O)Cc1ccc2c(c1)Nc1nccnc1S2 | 145 to 148 °C
O=C(O)CCCCCCCCCCSc1ncnc2ncn(Cc3ccc4c(c3)Nc3nccnc3S4)c12 | 166 to 170 °C
c1cnc2c(c1)ncn2Cc1ccc2c(c1)Nc1nccnc1S2 | 249 to 251 °C
CN1c2ccc(CN)cc2Nc2nccnc21 | 117 to 122 °C
CC(C)Oc1ccc(NCc2ccc3c(c2)Nc2nccnc2S3)cn1 | 145 to 148 °C
CS(=O)(=O)/N=C/N1CCN(C(=N)Cc2ccc3c(c2)Nc2nccnc2S3)CC1.Cl | 215 to 218 °C
